Source: BigSolDB 2.1

OC[C@@H](O)CN1CCN(c2ccccc2)CC1
solubility (mole fraction)
Conditions	283.1 K	288.1 K	293.1 K	298.1 K	303.1 K	308.1 K	313.1 K	318.1 K	323.1 K
in ethyl acetate	0.000375	0.000529	0.000655	0.000809	0.00104	0.00132	0.00172	0.00229	0.00299
in isobutanol	0.000871	0.00116	0.00147	0.00194	0.00245	0.00311	0.00397	0.0052	0.00686
in isopentanol	0.000649	0.000914	0.00126	0.00165	0.00209	0.00274	0.00358	0.00472	0.00611
in isopropanol	0.000146	0.000195	0.000245	0.000302	0.000371	0.000462	0.00057	0.000705	0.000852
in isopropyl acetate	0.000293	0.000371	0.000484	0.000609	0.000798	0.00102	0.00132	0.00172	0.00223
in n-butanol	0.000527	0.00072	0.000956	0.00131	0.00175	0.00239	0.00318	0.00424	0.00579
in n-butyl acetate	0.00032	0.000417	0.000551	0.000714	0.000937	0.00122	0.00156	0.00207	0.00266
in n-heptanol	0.000771	0.00104	0.00135	0.0018	0.0023	0.00297	0.00381	0.00492	0.00628
in n-hexanol	0.000816	0.00108	0.00139	0.00181	0.00235	0.00304	0.00393	0.00503	0.00651
in n-pentanol	0.000634	0.000945	0.00128	0.00163	0.00217	0.00285	0.00372	0.00493	0.00646
in n-pentyl acetate	0.000316	0.000391	0.000525	0.000678	0.000888	0.00114	0.0015	0.00194	0.0025
in n-propanol	0.000721	0.000943	0.0012	0.00157	0.00207	0.00277	0.00369	0.00501	0.00656
in n-propyl acetate	0.000351	0.000469	0.000613	0.000803	0.00103	0.00132	0.00173	0.00222	0.00293
